Data published in patent publication US20230203025A1, “ENHANCERS OF PARTICULATE GUANYLYL CYCLASE RECEPTOR A” (Mayo Foundation for Medical Education and Research, priority 2020, published 2023).

Assays:
[1] = plasma stability, human; type: in vitro ADME
[2] = hepatic microsomal stability, mouse; type: in vitro ADME
[3] = hepatic microsomal stability, human; type: in vitro ADME
[4] = target: T1, human GC-A (Homo sapiens, UniProt P16066); assay: ex vivo cGMP generation in HEK293 GC-A cells incubated with human plasma; type: cell-based
T1 construct: expressed in transfected cells; host or cells: HEK293
T1 sequence (P16066 33-1061): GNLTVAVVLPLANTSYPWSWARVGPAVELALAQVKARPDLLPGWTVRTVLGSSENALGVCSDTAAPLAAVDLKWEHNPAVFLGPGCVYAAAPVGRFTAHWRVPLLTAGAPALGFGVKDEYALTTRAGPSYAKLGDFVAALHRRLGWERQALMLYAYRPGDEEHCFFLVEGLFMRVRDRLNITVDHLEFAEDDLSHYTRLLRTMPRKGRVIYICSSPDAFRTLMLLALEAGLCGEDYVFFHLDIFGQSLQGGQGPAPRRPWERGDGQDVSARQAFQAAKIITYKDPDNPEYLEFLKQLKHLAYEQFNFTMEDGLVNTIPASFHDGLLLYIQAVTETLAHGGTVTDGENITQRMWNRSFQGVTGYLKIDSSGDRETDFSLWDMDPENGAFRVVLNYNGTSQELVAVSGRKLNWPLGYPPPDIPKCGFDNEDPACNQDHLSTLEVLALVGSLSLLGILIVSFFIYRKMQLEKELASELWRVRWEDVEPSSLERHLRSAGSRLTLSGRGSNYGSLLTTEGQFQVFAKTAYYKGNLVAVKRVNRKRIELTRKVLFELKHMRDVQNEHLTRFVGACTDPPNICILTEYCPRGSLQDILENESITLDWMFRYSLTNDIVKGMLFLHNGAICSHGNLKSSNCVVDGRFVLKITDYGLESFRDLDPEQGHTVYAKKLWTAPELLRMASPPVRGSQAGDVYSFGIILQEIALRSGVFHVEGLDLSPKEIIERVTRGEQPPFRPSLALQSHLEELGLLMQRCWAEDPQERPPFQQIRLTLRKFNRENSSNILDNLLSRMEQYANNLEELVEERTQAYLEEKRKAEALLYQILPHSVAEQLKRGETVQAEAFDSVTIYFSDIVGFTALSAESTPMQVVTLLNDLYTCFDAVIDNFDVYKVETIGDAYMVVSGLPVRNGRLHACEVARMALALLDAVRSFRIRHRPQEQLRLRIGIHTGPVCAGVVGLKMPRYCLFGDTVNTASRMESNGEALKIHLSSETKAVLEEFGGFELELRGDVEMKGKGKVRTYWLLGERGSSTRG
T1 sequence (P01160 124-151 partner limits assumed): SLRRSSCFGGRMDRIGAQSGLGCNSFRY
Protocol: Methods: Stored human plasma samples from normal subjects and patients with hypertension and HF were utilized. The details of the recruitment of these participants are previously reported. All participants gave written informed consent and the Institutional Review Board (IRB) at Mayo Clinic approved this study. […] HEK293 overexpressing human GC-A were cultured and grown as described above. Cells were grown in 48-well plates to 80-90% confluence. On the day of the experiment, cells were pre-incubated with Compound 19 at doses of 1, 5 or 10 μM and without (Veh) in 250 μL treatment buffer for 5 min at 37° C. 25 μL of human plasma was then added and incubated for additional 10 min. After, cells were washed with PBS once, lysed with 0.1M HCl and intracellular cGMP levels were measured in the lysate using a commercial cGMP ELISA kit (Enzo Life Sciences, Farmingdale, N.Y.) as instructed by the manufacturer.

[5] = LogD; type: physicochemical; conditions: pH 7.4
[6] = tested on: spontaneously hypertensive rats (SHRs); assay: IV bolus in spontaneously hypertensive rats; type: in vivo, rat; conditions: SHR, single IV bolus 10 mg/kg
Protocol: Methods (IV Bolus Administration of Compound 19 in (SHRs): the cGMP generating and blood pressure lowering actions of a single IV bolus dose of Compound 19 at 10 mg/kg in spontaneously hypertensive rats (SHRs; n=2; 12 weeks old; Envigo, East Millstone, N.J.) were investigated. Studies were performed in accordance with the Animal Welfare Act and with approval of the Mayo Clinic Institutional Animal Care and Use Committee.
SHRs were anesthetized in an induction chamber with inhaled isoflurane 3%.
During this brief state of anesthesia, SHRs were administered Inactin (100 mg/kg; IP to induce anesthesia and then maintained with by additional Inactin 100 mg/kg (IP), as required. Once adequate anesthesia was achieved, the anesthetized SHRs were subjected to vessel and bladder cannulation for Compound 19 administration, blood sampling and urine collection. A polyethylene (PE)-50 tube catheter was placed into the jugular vein for Compound 19 intravenous (IV) administration. The carotid artery was cannulated with a PE-50 tube catheter for blood pressure monitoring and blood sampling/collection. The bladder was accessed and cannulated with a PE-50 tube catheter for passive urine collection. After completion of the above procedural set up, a 45-minute equilibration period was performed that included a 30-minute baseline urine collection and a single baseline blood sample was performed.

CN(C)CCN1CCCC(C(=O)Nc2nc3c(F)cc(F)cc3s2)C1 (stereo not shown) [Compound 19]
Plasma Stability (% remaining at 1 h) [1]: 107.4%
Hepatic Microsomal Stability (% remaining at 1 h) [2]: 83.6%
Hepatic Microsomal Stability (% remaining at 1 h) [3]: 98.2%
generation of cGMP levels in HEK293 GC-A cells ([4]; 1, 5 or 10 μM with human plasma from normal, hypertension and HF cohorts): potentiated the generation of cGMP levels
cGMP potency by plasma cohort ([4]; HF plasma, highest circulating ANP and BNP): greatest cGMP potency
logD [5]: 3.04
diuresis (urine volume) [6]: increase in diuresis
mean arterial pressure ([6]; 0-60 min): decrease in mean arterial pressure
plasma cGMP ([6]; compared to baseline): increase
urinary cGMP ([6]; compared to baseline): increase
